“And” between values parts separate entries of the source, which are not always exact repeats. Identical values can stand only once.
Tests used:
[1] = system: SVMP bioactivity of the four active venoms (E. ocellatus, E. carinatus, B. asper, B. arietans); experiment: in vitro kinetic fluorogenic SVMP assay, viper venoms overall; type: biochemical; conditions: four active venoms; marimastat 150 nM to 150 µM, batimastat […] and 150 nM
Protocol: (§1) The SVMP assay measuring metalloproteinase activity and the plasma assay measuring coagulation in the presence or absence of venoms and inhibitors were performed as previously described. The SVMP assay kinetically measured cleavage of a quenched fluorogenic substrate (ES010, R&D Biosystems) by venom in the presence or absence of inhibitors.
(§2) Briefly, 10 µl of the substrate (supplied as a 6.2 mM stock) was used per 5 ml reaction buffer (150 mM NaCl, 50 mM Tris-Cl pH 7.5). Reactions consisted of 10 µl of venom ± inhibitors in PBS and 90 µl of substrate. Venoms were used at 1 µg/reaction and final inhibitor concentrations ranged from 150 µM to 150 nM. Samples were preincubated for 30 min at 37 °C and pipetted in triplicate into 384-well plates (Greiner). Thereafter, data was collected on an Omega FLUOstar (BMG Labtech) instrument at an excitation wavelength of 320 nm and emission wavelength of 405 nm at 25 °C for 1 h. The areas under the curve (AUCs) in the 0–40 min interval were calculated for each sample using MARS data analysis software v3.31 (BMG Labtech); this time point was chosen as the time where all fluorescence curves had reached a plateau (maximum fluorescence). For comparing venom-only samples, the means of at least three independent experimental runs for each condition, expressed as AUCs (n ≥ 3), were plotted at each inhibitor concentration with standard error of the mean (SEM). To determine inhibitor efficacy, the AUCs for each of the samples that consisted of venom + inhibitors were transformed and expressed as percentages of the venom-only sample (where the venom was 100%). The negative control (PBS-only) was also expressed relative to the venom, and the variation in background was presented as an interval delineated by the lowest and highest values in the PBS-only samples across concentrations and inhibitors for a specific venom.

[2] = system: procoagulant activity of viper venoms (citrated bovine plasma); experiment: plasma clotting assay, viper venoms overall; type: biochemical; conditions: range across all venoms; lower end of dimercaprol and marimastat ranges given as < 0.15; read-out: IC50, inhibition of procoagulant venom activity
Protocol: (§3) We used a previously developed plasma clotting assay[35] to measure venom-induced coagulation. Briefly, 100 ng of each venom was incubated at 37 °C for 30 min in the presence or absence of inhibitors (150 µM to 150 nM final concentrations). The final reaction consisted of 10 µl venom ± inhibitors in PBS, 20 µl 20 mM CaCl2, and 20 µl citrated bovine plasma (VWR). The samples were pipetted in triplicate into 384-well plates, and absorbance monitored at 595 nm for 2 h at 25 °C on an Omega FLUOstar instrument. We calculated the maximum clotting velocity of each of the curves as per clot waveform analysis, by calculating the maximum of the first derivative. The means of at least three independent experimental runs for each condition were plotted at each inhibitor concentration with SEMs.

[3] = system: Bitis arietans venom SVMP activity; experiment: fluorogenic SVMP assay; type: biochemical; conditions: independent repeats
Protocol: as §1, §2

[4] = system: Echis ocellatus venom SVMP activity; experiment: fluorogenic SVMP assay; type: biochemical; conditions: independent repeats
Protocol: as §1, §2

[5] = system: Bothrops asper venom SVMP activity; experiment: fluorogenic SVMP assay; type: biochemical; conditions: independent repeats
Protocol: as §1, §2

[6] = system: Echis carinatus venom SVMP activity; experiment: fluorogenic SVMP assay; type: biochemical; conditions: inhibitor 15 µM, independent repeats
Protocol: as §1, §2

[7] = type: in vivo, CD-1 mice; conditions: no venom; 60 µg of each drug, i.v.; listed as M
Protocol: For all experimental animals described above, blood samples were collected via cardiac puncture immediately post-euthanasia. Plasma was separated by centrifugation at 400 × g for 10 min and stored at −80 °C. We assessed the levels of thrombin-antithrombin complexes (TAT) and soluble thrombomodulin using mouse ELISA Kits (ab137994 and ab209880, Abcam), following the manufacturer’s protocol. […] The resulting data was plotted as the median of duplicate measurements for each animal and is presented with standard deviations (SDs).

[8] = system: procoagulant activity of Bothrops asper venom (citrated bovine plasma); experiment: plasma clotting assay; type: biochemical; conditions: Bothrops asper venom 100 ng, independent repeats
Protocol: as §3

[9] = system: procoagulant activity of Echis ocellatus venom (citrated bovine plasma); experiment: plasma clotting assay; type: biochemical; conditions: Echis ocellatus venom 100 ng, independent repeats
Protocol: as §3

E. ocellatus venom = experiment: in vivo preincubation model of envenoming (i.v.); parameters: species or system CD-1 mice
Protocol: All animal experiments were conducted using protocols approved by the Animal Welfare and Ethical Review Boards of the Liverpool School of Tropical Medicine and the University of Liverpool, and performed in specific pathogen-free conditions under licensed approval (PPL #4003718 and #P5846F90) of the UK Home Office and in accordance with the Animal [Scientific Procedures] Act 1986 and institutional guidance on animal care. All experimental animals (18–20 g [4–5 weeks old], male, CD-1 mice, Charles River, UK) were housed in groups of five with environmental enrichment, water and food ad libitum and their health monitored daily during acclimatization. The experimental design was based upon 3R-refined WHO-recommended protocols[28],[41], with animals randomized and observers being blinded to the experimental condition. The median lethal doses (venom LD50) used for E. ocellatus (Nigeria), E. carinatus (India), B. asper (Costa Rica), D. russelii (Sri Lanka) and B. arietans (Nigeria) venoms were previously determined[25],[41],[44],[45].
All experimental doses were prepared to a volume of 200 µl in PBS and incubated at 37 °C for 30 min prior to their intravenous injection via the tail vein. Animals were monitored for 6 h, and euthanized via rising concentrations of CO2 upon observation of previously defined humane end points that are predicators of lethality (e.g., seizure, pulmonary distress, paralysis, hemorrhage)[28]. Deaths, time of death, and survivors were recorded; where death/time of death actually represents the implementation of euthanasia based on defined humane end points.
For all experimental animals described above, blood samples were collected via cardiac puncture immediately post-euthanasia. Plasma was separated by centrifugation at 400 × g for 10 min and stored at −80 °C. We assessed the levels of thrombin-antithrombin complexes (TAT) and soluble thrombomodulin using mouse ELISA Kits (ab137994 and ab209880, Abcam), following the manufacturer’s protocol. All available plasma samples (some were unobtainable via cardiac puncture due to extensive internal hemorrhage) were assessed if the time of death within the group varied, whereas three samples were randomly chosen if the time of death was the same (e.g., either very rapid death within 2 min, or survival until the end of the experiment [360 min or 24 h]). The resulting data was plotted as the median of duplicate measurements for each animal and is presented with standard deviations (SDs).

## CNC(=O)[C@@H](NC(=O)[C@H](CC(C)C)[C@H](O)C(=O)NO)C(C)(C)C [marimastat]
[1]
  neutralization of SVMP bioactivity: complete in vitro neutralization
[2]
  IC50: 150 to 1920 nM
[3]; inhibitor 15 µM
  SVMP activity, percentage of the venom-only sample: 15.1667% and 15.8748% and 15.6727%
[3]; inhibitor 150 µM
  SVMP activity, percentage of the venom-only sample: 14.1911% and 15.0205% and 14.976%
[4]; inhibitor 15 µM
  SVMP activity, percentage of the venom-only sample: 19.3205% and 20.8108% and 21.1203%
[4]; inhibitor 150 µM
  SVMP activity, percentage of the venom-only sample: 18.1136% and 19.6025% and 15.3204%
[5]; inhibitor 15 µM
  SVMP activity, percentage of the venom-only sample: 33.0579% and 34.1722% and 57.3186%
[5]; inhibitor 150 µM
  SVMP activity, percentage of the venom-only sample: 29.6154% and 33.7275% and 43.4535%
[6]
  SVMP activity, percentage of the venom-only sample: 11.481% and 22.9494% and 21.3373%
[7]
  thrombin-antithrombin (TAT) levels, drug-only control animals: 16.1111 ng/mL and 15.7371 ng/mL and 12.5653 ng/mL
[8]; inhibitor 15 µM
  maximum clotting velocity: 0.02338 and 0.02609 and 0.02203
[8]; inhibitor 150 µM
  maximum clotting velocity: 0.02696 and 0.02551 and 0.02522
[9]; inhibitor 15 µM
  maximum clotting velocity: 0.0225 and 0.02559 and 0.02899
[9]; inhibitor 150 µM
  maximum clotting velocity: 0.02088 and 0.02471 and 0.02435
E. ocellatus venom; 45 µg E. ocellatus venom preincubated with 60 µg inhibitor/mouse, i.v.
  animals surviving the 6 h experiment (groups of five): four
E. ocellatus venom; 45 µg E. ocellatus venom preincubated with 60 µg of each drug, i.v., 6 h
  protection against venom-induced lethality: prolonged the survival
E. ocellatus venom; plasma after euthanasia, E. ocellatus venom + 60 µg of each drug, venom-only mean 1127.3, normal mice 10.2–15.9
  thrombin-antithrombin (TAT) levels, range in group: 231.2 to 267.9 ng/mL

From PMC7738508, “A therapeutic combination of two small molecule toxin inhibitors provides broad preclinical efficacy against viper snakebite” (Nature Communications, 2020)
